{"source": "PubChem BioAssay (NCI)", "assay_in_all_cases": "DTP human tumour cell line panel, 48 h", "key": {"[1]": {"system": "A498 renal"}, "[2]": {"system": "ACHN renal"}, "[3]": {"system": "CAKI-1 renal"}, "[4]": {"system": "CCRF-CEM leukemia"}, "[5]": {"system": "EKVX NSCLC"}, "[6]": {"system": "HCC-2998 colon"}, "[7]": {"system": "HCT-116 colon"}, "[8]": {"system": "HCT-15 colon"}, "[9]": {"system": "HL-60(TB) leukemia"}, "[10]": {"system": "HOP-62 NSCLC"}, "[11]": {"system": "HT29 colon"}, "[12]": {"system": "IGROV1 ovarian"}, "[13]": {"system": "K-562 leukemia"}, "[14]": {"system": "KM12 colon"}, "[15]": {"system": "M14 melanoma"}, "[16]": {"system": "MALME-3M melanoma"}, "[17]": {"system": "MDA-MB-231 breast"}, "[18]": {"system": "MDA-MB-435"}, "[19]": {"system": "MDA-N"}, "[20]": {"system": "MOLT-4 leukemia"}, "[21]": {"system": "NCI-H23 lung"}, "[22]": {"system": "NCI-H460 lung"}, "[23]": {"system": "OVCAR-3 ovarian"}, "[24]": {"system": "OVCAR-4 ovarian"}, "[25]": {"system": "OVCAR-5 ovarian"}, "[26]": {"system": "PC-3 prostate"}, "[27]": {"system": "RPMI-8226 leukemia"}, "[28]": {"system": "SK-MEL-2 melanoma"}, "[29]": {"system": "SK-OV-3 ovarian"}, "[30]": {"system": "SN12C renal"}, "[31]": {"system": "SNB-19 CNS"}, "[32]": {"system": "SNB-75 CNS"}, "[33]": {"system": "SR leukemia"}, "[34]": {"system": "SW-620 colon"}, "[35]": {"system": "T-47D breast"}, "[36]": {"system": "TK-10 renal"}, "[37]": {"system": "UACC-257 melanoma"}, "[38]": {"system": "UACC-62 melanoma"}}, "note": "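Tested at 5 concentrations; 48 h exposure; 96-well plates; endpoints linearly interpolated, else capped at highest concentration. The concentration for full growth arrest is given as TGI.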"}
{"smiles": "N=c1c2c(ncn1N)Oc1c(c(-c3ccccc3)nn1-c1ccccc1)C2c1ccc(Cl)cc1", "note": "(stereo not drawn)", "values": [{"measurement": "TGI", "setting": "[1]", "result": 4.32, "unit": "µM"}, {"measurement": "TGI", "setting": "[2]", "result": 3.46, "unit": "µM"}, {"measurement": "TGI", "setting": "[3]", "result": 3.71, "unit": "µM"}, {"measurement": "TGI", "setting": "[4]", "result": "> 100", "unit": "µM"}, {"measurement": "TGI", "setting": "[5]", "result": 3.39, "unit": "µM"}, {"measurement": "TGI", "setting": "[6]", "result": 3.08, "unit": "µM"}, {"measurement": "TGI", "setting": "[7]", "result": 3.03, "unit": "µM"}, {"measurement": "TGI", "setting": "[8]", "result": 3.65, "unit": "µM"}, {"measurement": "TGI", "setting": "[9]", "result": "> 100", "unit": "µM"}, {"measurement": "TGI", "setting": "[10]", "result": 3.02, "unit": "µM"}, {"measurement": "TGI", "setting": "[11]", "result": 2.77, "unit": "µM"}, {"measurement": "TGI", "setting": "[12]", "result": 2.8, "unit": "µM"}, {"measurement": "TGI", "setting": "[13]", "result": "> 100", "unit": "µM"}, {"measurement": "TGI", "setting": "[14]", "result": 2.99, "unit": "µM"}, {"measurement": "TGI", "setting": "[15]", "result": 3.18, "unit": "µM"}, {"measurement": "TGI", "setting": "[16]", "result": 3.1, "unit": "µM"}, {"measurement": "TGI", "setting": "[17]", "result": 5.21, "unit": "µM"}, {"measurement": "TGI", "setting": "[18]", "result": 3.46, "unit": "µM"}, {"measurement": "TGI", "setting": "[19]", "result": 3.86, "unit": "µM"}, {"measurement": "TGI", "setting": "[20]", "result": "> 100", "unit": "µM"}, {"measurement": "TGI", "setting": "[21]", "result": 3.31, "unit": "µM"}, {"measurement": "TGI", "setting": "[22]", "result": 2.99, "unit": "µM"}, {"measurement": "TGI", "setting": "[23]", "result": 3.11, "unit": "µM"}, {"measurement": "TGI", "setting": "[24]", "result": 3.24, "unit": "µM"}, {"measurement": "TGI", "setting": "[25]", "result": 2.93, "unit": "µM"}, {"measurement": "TGI", "setting": "[26]", "result": 3.01, "unit": "µM"}, {"measurement": "TGI", "setting": "[27]", "result": "> 100", "unit": "µM"}, {"measurement": "TGI", "setting": "[28]", "result": 3.1, "unit": "µM"}, {"measurement": "TGI", "setting": "[29]", "result": 3.37, "unit": "µM"}, {"measurement": "TGI", "setting": "[30]", "result": 3.89, "unit": "µM"}, {"measurement": "TGI", "setting": "[31]", "result": 2.86, "unit": "µM"}, {"measurement": "TGI", "setting": "[32]", "result": 2.83, "unit": "µM"}, {"measurement": "TGI", "setting": "[33]", "result": "> 100", "unit": "µM"}, {"measurement": "TGI", "setting": "[34]", "result": 4.5, "unit": "µM"}, {"measurement": "TGI", "setting": "[35]", "result": 4.99, "unit": "µM"}, {"measurement": "TGI", "setting": "[36]", "result": 3.47, "unit": "µM"}, {"measurement": "TGI", "setting": "[37]", "result": 3.71, "unit": "µM"}, {"measurement": "TGI", "setting": "[38]", "result": 3.16, "unit": "µM"}]}
